According to patent publication US8007782B2, “Combination bacteriolytic therapy for the treatment of tumors” (priority 2003, dated 2011):
Where a SMILES comes first, the peptide text is derived from it. [ ]: non-standard residue; d: D form. The star is where a group is joined. Dolaproine = CO[C@@H]([C@@H]1CCCN1)[C@@H](C)C(=O)O; Dil = CC[C@H](C)[C@H](NC)[C@@H](CC(=O)O)OC; NMe2Val = CC(C)[C@@H](C(=O)*)N(C)C

Experiments:
[1] = tested on: HCT116 human colorectal cancer cells; assay: Tumorigenicity assay, HCT116 xenografts in nude mice; type: in vivo; conditions: for Effect with C. novyi-NT / Effect alone: nude mice; for Effect alone: agent alone
Excerpt: (§1) All animal protocols were designed in accordance with the Guide for the Care and Use of Laboratory Animals (NIH Publication 86-23) and were approved by the Johns Hopkins University Institutional Animal Care and Use Committee. Six to eight week old mice were implanted subcutaneously on one flank with 3 to 6 million cancer cells. Establishment of tumors of 150 to 500 mm3 took 8 to 21 days, depending on the cell type. C. novyi-NT spores (300×106) and anti-microtubule agents were generally administered by a single intravenous injection through the tail vein in a total volume of 300 to 500 ul phosphate-buffered saline (PBS). Quantitative assessment of tumor growth was performed by measuring subcutaneous tumor grafts (major and minor axis) using electronic calipers. Tumor volume was calculated using the equation: length×width2×0.5. Progression free survival was defined as the length of time following treatment before any increase in tumor volume was observed. Mice were considered “cured” if no tumor was evident three months after treatment. Animals were weighed at least twice a week and carefully observed for signs of toxicity every day for the first week following treatment and then twice a week thereafter. At least five mice were used for each treatment arm described in the Experimental Results.
The timing, route, and dose of agents are critical for the success of any experimental therapy. When two agents are combined, the number of variables that must be tested increases exponentially. To simplify interpretation of the comparisons between various anti-microtubule agents, pilot studies with representative drugs were performed.
Eighteen agents known to interact with microtubules were each tested in this manner in nude mice harboring xenografts of HCT116 human colorectal cancer cells. At least five mice harboring tumors of 150 to 500 mm3 in size were used for each experimental arm. Two classes of responses were noted. One type of response was characterized by a rapid hemorrhagic necrosis, observed only with agents that inhibited microtubule […] (FIG. 1A, B). The other type of response was characterized by a slow regression, observed with agents that stabilized microtubules (FIG. 2A, B).

[2] = tested on: HCT116, HuCC-T1, HT-29, SW480, B16 and DLD-1 tumors; assay: Low dose HTI-286 and L-NNA on various xenografts (FIG. 10); type: in vivo, mice; conditions: HTI-286 1 mg/kg without L-NNA; L-NNA 10 mg/kg without HTI-286
Excerpt: FIG. 10A-10F Quantification of the effects of C. novyi-NT plus low doses of HTI-286 and L-NNA on various xenografts (HCT116, HuCC-T1, HT-29, SW480, B16, and DLD-1, respectively).
[…] […] The p-values are based on comparisons between L-NNA+HTI-286 and L-NNA+HTI-286+C. novyi-NT spores. The p-value is indicated only when the result was statistically significant.
All animal protocols were designed in accordance with the Guide for the Care and Use of Laboratory Animals (NIH Publication 86-23) and were approved by the Johns Hopkins University Institutional Animal Care and Use Committee. Six to eight week old mice were implanted subcutaneously on one flank with 3 to 6 million cancer cells. Establishment of tumors of 150 to 500 mm3 took 8 to 21 days, depending on the cell type. C. novyi-NT spores (300×106) and anti-microtubule agents were generally administered by a single intravenous injection through the tail vein in a total volume of 300 to 500 ul phosphate-buffered saline (PBS). Quantitative assessment of tumor growth was performed by measuring subcutaneous tumor grafts (major and minor axis) using electronic calipers. Tumor volume was calculated using the equation: length×width2×0.5. Progression free survival was defined as the length of time following treatment before any increase in tumor volume was observed. Mice were considered “cured” if no tumor was evident three months after treatment. […]

[3] = Mortality following COBALT; type: in vivo, nude mice; conditions: deaths within one week, pooled xenograft models
Excerpt: as §1
(§2) This toxicity was observed only when the combination of C. novyi-NT spores and the drugs was administered and not with either the bacteria or the drugs alone. […] Though major tumor regressions were common, few mice died as a result of therapy (Table 2) No deaths occurred after treatment with the microtubule stabilizers plus C. novyi-NT, while 4% to 8% of mice treated with microtubule destabilizers plus C. novyi-NT died. The only other toxicity observed was transient weight loss (Table 3). Mice treated with the drugs alone lost ˜5 to 10% of their body weight within 7 days, while weight loss after treatment with C. novyi-NT plus these drugs varied from 8% to 18%. All weights recovered to pre-treatment levels within two weeks.

Weight loss after COBALT = type: in vivo, nude mice; conditions: drug dose 24.0 mg/kg; maximum average weight loss relative to weight one day prior to treatment; HCT116 xenografts
Excerpt: as §1, §2

[4] = 15 mg/kg × 1 (iv) with 3×108 C. novyi-NT spores iv
[5] = 20 mg/kg × 1 (iv) with 3×108 C. novyi-NT spores iv
[6] = 10 mg/kg × 1 (ip) with 3×108 C. novyi-NT spores iv
[7] = 5 mg/kg × 1 (ip) with 3×108 C. novyi-NT spores iv

## CC[C@H](C)[C@@H]([C@@H](CC(=O)N1CCC[C@H]1[C@H](OC)[C@@H](C)C(=O)NCCc1ccccc1)OC)N(C)C(=O)[C@@H](NC(=O)[C@H](C(C)C)N(C)C)C(C)C [auristatin PE]
[1]; 2 (2.0) mg/kg × 1 (iv) with 3×108 C. novyi-NT spores iv
  Effect with C. novyi-NT: +
[1]; 2 (2.0) mg/kg × 1 (iv)
  Effect alone: 0

## COc1ccc(/C=C\c2cc(OC)c(OC)c(OC)c2)cc1OP(=O)(O)O [combretastatin A4P]
[1]; 50 mg/kg × 1 (ip) with 3×108 C. novyi-NT spores iv
  Effect with C. novyi-NT: +
[1]; 200 mg/kg × 1 (ip) with 3×108 C. novyi-NT spores iv
  Effect with C. novyi-NT: +
[1]; 50 mg/kg × 1 (ip)
  Effect alone: 0
[1]; 200 mg/kg × 1 (ip)
  Effect alone: +

## C=CC=CC(C)C(OC(N)=O)C(C)C(O)C(C)CC=CC(C)C(O)C(C)C=CC(O)CC1OC(=O)C(C)C(O)C1C (single isomer, unassigned; (+)) [(+)-14-normethyldiscodermolide]
[1]; [4]
  Effect with C. novyi-NT: +
[1]; 15 mg/kg × 1 (iv)
  Effect alone: +

## NC(=NCCC[C@H](N)C(=O)O)N[N+](=O)[O-] [L-NNA]
[1]
  effect of L-NNA added to C. novyi-NT alone or high doses of HTI-286 plus C. novyi-NT: added little
[1]; L-NNA 10 mg/kg
  effect of L-NNA on responses to low doses of HTI-286: significantly enhanced
[2]
  effects on tumor growth when administered without the other agent: no significant effects on tumor growth

## O=C(Nc1ccncc1)C(=O)c1cn(Cc2ccc(Cl)cc2)c2ccccc12 [D-24851]
[1]; 25 mg/kg × 1 (ip) with 3×108 C. novyi-NT spores iv
  Effect with C. novyi-NT: +
[1]; 100 mg/kg × 1 (ip) with 3×108 C. novyi-NT spores iv
  Effect with C. novyi-NT: +
[1]; 25 mg/kg × 1 (ip)
  Effect alone: 0
[1]; 100 mg/kg × 1 (ip)
  Effect alone: 0

## COc1ccc2c(c1OC)C(=O)O[C@@H]2[C@H]1c2c(cc3c(c2OC)OCO3)CCN1C [noscapine]
[1]; 50 mg/kg × 1 (iv) with 3×108 C. novyi-NT spores iv
  Effect with C. novyi-NT: +
[1]; 70 mg/kg × 1 (iv) with 3×108 C. novyi-NT spores iv
  Effect with C. novyi-NT: +
[1]; 50 mg/kg × 1 (iv)
  Effect alone: 0
[1]; 70 mg/kg × 1 (iv)
  Effect alone: 0

## CC(=O)O[C@H]1C(=O)[C@@]2(C)[C@H]([C@H](OC(=O)c3ccccc3)[C@]3(O)C[C@H](OC(=O)[C@H](O)[C@@H](NC(=O)c4ccccc4)c4ccccc4)C(C)=C1C3(C)C)[C@]1(OC(C)=O)CO[C@@H]1C[C@@H]2O [paclitaxel]
[1]; [4]
  Effect with C. novyi-NT: 0
[1]; 30 mg/kg × 1 (iv) with 3×108 C. novyi-NT spores iv
  Effect with C. novyi-NT: +
[1]; 15 mg/kg × 1 (iv)
  Effect alone: 0
[1]; 30 mg/kg × 1 (iv)
  Effect alone: 0

## C=C/C=C\[C@H](C)[C@H](OC(N)=O)[C@@H](C)[C@H](O)[C@@H](C)C/C(C)=C\[C@H](C)[C@@H](O)[C@@H](C)/C=C\[C@@H](O)C[C@@H]1OC(=O)[C@H](C)[C@@H](O)[C@H]1C [discodermolide]
[1]; [4]
  Effect with C. novyi-NT: ++++ (>20% cures)
[1]; [5]
  Effect with C. novyi-NT: ++++ (>20% cures)
[1]; 15 mg/kg × 1 (iv)
  Effect alone: ++ (10% to 50% shrinkage in tumor volume relative to pre-treatment size)
[1]; 20 mg/kg × 1 (iv)
  Effect alone: ++ (10% to 50% shrinkage in tumor volume relative to pre-treatment size)

## arsenic trioxide
[1]; [6]
  Effect with C. novyi-NT: +
[1]; 10 mg/kg × 1 (ip)
  Effect alone: 0

## COc1cc2c(c(OC)c1OC)-c1ccc(OC)c(=O)cc1[C@@H](NC(C)=O)CC2 [colchicine]
[1]; [7]
  Effect with C. novyi-NT: +
[1]; [6]
  Effect with C. novyi-NT: +
[1]; 20 mg/kg × 1 (ip) with 3×108 C. novyi-NT spores iv
  Effect with C. novyi-NT: ++ (10% to 50% shrinkage in tumor volume relative to pre-treatment size)
[1]; 5 mg/kg × 1 (ip)
  Effect alone: +
[1]; 10 mg/kg × 1 (ip)
  Effect alone: +
[1]; 20 mg/kg × 1 (ip)
  Effect alone: ++ (10% to 50% shrinkage in tumor volume relative to pre-treatment size)

## CC[C@]1(O)C[C@@H]2CN(CCc3c([nH]c4ccccc34)[C@@](C(=O)OC)(c3cc4c(cc3OC)N(C)[C@H]3[C@@](O)(C(=O)OC)[C@H](OC(C)=O)[C@]5(CC)C=CCN6CC[C@]43[C@@H]65)C2)C1 [vinblastine]
[1]; [7]
  Effect with C. novyi-NT: 0
[1]; [6]
  Effect with C. novyi-NT: +
[1]; 5 mg/kg × 1 (ip)
  Effect alone: 0
[1]; 10 mg/kg × 1 (ip)
  Effect alone: +

## CCC1=C[C@@H]2CN(C1)Cc1c([nH]c3ccccc13)[C@@](C(=O)OC)(c1cc3c(cc1OC)N(C)[C@H]1[C@@](O)(C(=O)OC)[C@H](OC(C)=O)[C@]4(CC)C=CCN5CC[C@]31[C@@H]54)C2 [vinorelbine]
[3]; drug dose 16.0 mg/kg
  # dead (treatment-related deaths): 0
[3]; drug dose 20.0 mg/kg
  # dead (treatment-related deaths): 0
[3]; drug dose 24.0 mg/kg
  # dead (treatment-related deaths): 0
Weight loss after COBALT
  Weight Loss (%): 8.3%
[1]; 16 mg/kg × 1 (iv) with 3×108 C. novyi-NT spores iv
  Effect with C. novyi-NT: ++ (10% to 50% shrinkage in tumor volume relative to pre-treatment size)
[1]; [5]
  Effect with C. novyi-NT: +++ (>50% shrinkage in tumor volume relative to pre-treatment size)
[1]; 24 mg/kg × 1 (iv) with 3×108 C. novyi-NT spores iv
  Effect with C. novyi-NT: +++ (>50% shrinkage in tumor volume relative to pre-treatment size)
[1]; 16 mg/kg × 1 (iv)
  Effect alone: +
[1]; 20 mg/kg × 1 (iv)
  Effect alone: +
[1]; 24 mg/kg × 1 (iv)
  Effect alone: +

## CC[C@]1(O)C[C@H]2CN(CCc3c([nH]c4ccccc34)[C@@](C(=O)OC)(c3cc4c(cc3OC)N(C=O)[C@H]3[C@@](O)(C(=O)OC)[C@H](OC(C)=O)[C@]5(CC)C=CCN6CC[C@]43[C@@H]65)C2)C1 [vincristine]
[1]; [7]
  Effect with C. novyi-NT: 0
[1]; [6]
  Effect with C. novyi-NT: +
[1]; 5 mg/kg × 1 (ip)
  Effect alone: 0
[1]; 10 mg/kg × 1 (ip)
  Effect alone: 0

## CC[C@H](C)[C@@H]([C@@H](CC(=O)N1CCC[C@H]1[C@H](OC)[C@@H](C)C(=O)N[C@@H](Cc1ccccc1)C(=O)OC)OC)N(C)C(=O)[C@@H](NC(=O)[C@H](C(C)C)N(C)C)C(C)C [auristatin PHE] (NMe2Val-V[Dil][Dolaproine]F-OMe)
[1]; 0.2 mg/kg × 1 (iv) with 3×108 C. novyi-NT spores iv
  Effect with C. novyi-NT: +
[1]; 0.2 mg/kg × 1 (iv)
  Effect alone: 0

## C/C(=C\c1csc(C)n1)[C@@H]1C[C@@H]2O[C@]2(C)CCC[C@H](C)[C@H](O)[C@@H](C)C(=O)C(C)(C)[C@@H](O)CC(=O)O1 [epothilone B]
[1]; 25 mg/kg QD × 4 (ip) with 3×108 C. novyi-NT spores
  Effect with C. novyi-NT: +

## CC[C@H](C)[C@@H]([C@@H](CC(=O)N1CCC[C@H]1[C@H](OC)[C@@H](C)C(=O)N[C@@H](Cc1ccccc1)c1nccs1)OC)N(C)C(=O)[C@@H](NC(=O)[C@H](C(C)C)N(C)C)C(C)C [dolastatin 10]
[1]; 0.30 mg/kg × 1 (iv) with 3×108 C. novyi-NT spores iv
  Effect with C. novyi-NT: +++ (>50% shrinkage in tumor volume relative to pre-treatment size)
[1]; 0.45 mg/kg × 1 (iv) with 3×108 C. novyi-NT spores iv
  Effect with C. novyi-NT: +++ (>50% shrinkage in tumor volume relative to pre-treatment size)
[1]; 0.30 mg/kg × 1 (iv)
  Effect alone: 0
[1]; 0.45 mg/kg × 1 (iv)
  Effect alone: 0
